# Structures can show the parent of a compound that is named as a salt. Where two headings read alike, the source gives them in different places.
# Biological target: T1, rh beta trypsin (Homo sapiens, UniProt P20231)
# T1 construct: purchased Promega
# Experiment: Trypsin (tryptase) inhibition, cleavage of N-p-Gly-Pro-Lys-para-nitroaniline measured at 405 nm
# Type: biochemical
# Description: The compounds of the invention are notable for their effective trypsin-inhibiting property. The said capacity to inhibit trypsin activity was determined in accordance with the following trial descriptions.
# The determinations are carried out in tris-HCl buffer (100 mM), that also contained calcium (5 mM) and heparin ([…]), at a pH of 7.4. As the standard, rh beta trypsin is used, this is commercially obtainable, for example, from Promega. A suitable substrate is N-p-Gly-Pro-Lys-para-nitroaniline in a concentration of 0.6 mM. The substrate is digested with trypsin, whereby p-nitro-aniline is obtained that can be measured at 405 nm. Normally, an incubation period of 5 minutes and an incubation temperature of 37° C. is chosen. For the enzyme activity, 0.91 U/ml are used. The determination is carriedout in an auto-analyser (Cobas Bio) from the firm Hoffmann LaRoche. The potential inhibitor substances are used in the screening procedure in concentrations of 10 μM, and the inhibition of the trypsin is given in percentages. At an inhibition in excess of 70%, the IC50 is determined (the concentration at which 50% of the enzyme activity is inhibited). After a 5-minute pre-incubation of the potential inhibiting substance, the substrate is added for the start of the reaction, whereby the production of p-nitro-aniline is taken, after 5 minutes, after testing the linearity, as a measure of the enzyme activity.
# [1] = in vitro, tris-HCl buffer pH 7.4 with calcium and heparin, substrate 0.6 mM, 5 minutes, 37° C., read-out: Trypsin-inhibiting property
# [2] = in vitro tests on the pro-drugs of formula IIA, read-out: IC50
# T1 sequence (P20231 31-275): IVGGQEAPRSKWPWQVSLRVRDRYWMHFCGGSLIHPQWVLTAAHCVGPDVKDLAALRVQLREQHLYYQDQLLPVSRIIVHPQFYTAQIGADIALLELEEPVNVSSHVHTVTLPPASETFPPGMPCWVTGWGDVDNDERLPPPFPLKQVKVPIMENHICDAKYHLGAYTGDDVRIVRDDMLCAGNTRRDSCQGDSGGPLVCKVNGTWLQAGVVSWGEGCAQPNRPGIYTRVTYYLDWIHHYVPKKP
Compound,IC50 [1],IC50 [2]
"Cn1c(CCc2ccc(C(=N)N)cc2)nc2cc(C(=O)N3CCN(C/C=C/c4ccccc4)CC3)ccc21 [Example 1, [2-(4-amidinophenyl)-ethyl]-1-methyl-benzimidazole-5-yl-carboxylic acid-[4-(3-phenyl-allyl)-piperazinyl]-amide-dihydrochloride]",1 to 20 nM,
CCCCS(=O)(=O)N(C)C1CCN(C(=O)c2ccc3c(c2)nc(CCc2ccc(C(=N)N)cc2)n3C)CC1 [Example 168],1 to 20 nM,
"Cc1cccc(NC(=O)NC2CCN(C(=O)c3ccc4c(c3)nc(CCc3ccc(C(=N)N)cc3)n4C)CC2)c1 [Example 25, 4-(2-{1-Methyl-5-[4-(3-m-tolyl-ureido)-piperidine-1-carbonyl]-1H-benzimidazole-2-yl}-ethyl)-benzamidine]",1 to 20 nM,
Cn1c(CCc2ccc(C(=N)N)cc2)nc2cc(C(=O)N3CCC(NC(=O)Cc4cccc5ccccc45)CC3)ccc21 [Example 189],1 to 20 nM,
CCCCCCCCOC(=O)N=C(N)c1ccc(CCc2nc3cc(C(=O)N4CCC(NC(=O)c5ccccc5)CC4)ccc3n2C)cc1 [IIA10],,7910 nM
"CCOCCCn1c(CCc2ccc(C(=N)N)cc2)nc2cc(C(=O)N3CCC(NC(=O)Nc4ccccc4)CC3)ccc21 [Example 20, 2-[2-(4-Amidinophenyl)-ethyl]-1-(3-ethoxy-propyl)-benzimidazol-5-yl-carbonsäure-[4-(3-phenyl-ureido)-piperidinyl]-amid-dihydrochlorid]",1 to 20 nM,
CN(C1CCN(C(=O)c2ccc3c(c2)nc(CCc2ccc(C(=N)N)cc2)n3C)CC1)S(=O)(=O)c1cccc(Cl)c1Cl [Example 171],20 to 50 nM,
"Cn1c(CCc2ccc(C(=N)N)cc2)nc2cc(C(=O)N3CCC(NC(=O)c4cccc(Cl)c4)CC3)ccc21 [Example 44, 2-[2-(4-Amidinophenyl)-ethyl]-1-methyl-benzimidazole-5-yl-carboxylic acid-[4-(3-chloro)-benzamidopiperidinyl)-amide]",0.1 to 1 nM,
CN(C1CCN(C(=O)c2ccc3c(c2)nc(CCc2ccc(C(=N)N)cc2)n3C)CC1)S(=O)(=O)c1cccc2ccccc12 [Example 169],1 to 20 nM,
Cn1c(CCc2ccc(C(=N)N)cc2)nc2cc(C(=O)N3CCC(NS(=O)(=O)/C=C/c4ccccc4)CC3)ccc21 [Example 167],1 to 20 nM,
CCCCS(=O)(=O)NC1CCN(C(=O)c2ccc3c(c2)nc(CCc2ccc(C(=N)N)cc2)n3C)CC1 [Example 173],20 to 50 nM,
"Cn1c(CCc2ccc(C(=N)N)cc2)nc2cc(C(=O)N3CCC(NC(=O)Nc4ccccc4Cl)CC3)ccc21 [Example 29, 4-[2-(5-{4-[3-(2-Chloro-phenyl)-ureido]-piperidine-1-carbonyl}-1-methyl-1H-benzimidazole-2-yl)-ethyl]-benzamidine]",0.1 to 1 nM,
CN(C1CCN(C(=O)c2ccc3c(c2)nc(CCc2ccc(C(=N)N)cc2)n3C)CC1)S(=O)(=O)/C=C/c1ccccc1 [Example 166],1 to 20 nM,
"Cn1c(CCc2ccc(C(=N)N)cc2)nc2cc(C(=O)N3CCC(NC(=O)Nc4ccc5ccccc5c4)CC3)ccc21 [Example 36, 4-(2-{1-Methyl-5-[4-(3-naphthalen-2-yl-ureido)-piperidine-1-carbonyl]-1H-benzimidazole-2-yl}-ethyl)-benzamidine]",1 to 20 nM,
"Cn1c(CCc2ccc(C(=N)N)cc2)nc2cc(C(=O)N3CCC(NC(=O)Nc4ccc(Cl)cc4Cl)CC3)ccc21 [Example 35, 4-[2-(5-{4-[3-(2,4-Dichloro-phenyl)-ureido]-piperidine-1-carbonyl}-1-methyl-1H-benzimidazole-2-yl)-ethyl]-benzamidine]",1 to 20 nM,
N=C(N)c1ccc(CCc2nc3cc(C(=O)N4CCC(NC(=O)c5ccccc5)CC4)ccc3n2C2CC2)cc1 [Example 196],20 to 50 nM,
"COc1ccccc1NC(=O)NC1CCN(C(=O)c2ccc3c(c2)nc(CCc2ccc(C(=N)N)cc2)n3C)CC1 [Example 30, 4-[2-(5-{4-[3-(2-Methoxy-phenyl)-ureido]-piperidine-1-carbonyl}-1-methyl-1H-benzimidazole-2-yl)-ethyl]-benzamidine]",1 to 20 nM,
Cc1c(Cl)cccc1S(=O)(=O)N(C)C1CCN(C(=O)c2ccc3c(c2)nc(CCc2ccc(C(=N)N)cc2)n3C)CC1 [Example 170],1 to 20 nM,
Cn1c(CCc2ccc(C(=N)N)cc2)nc2cc(C(=O)N3CCC(Nc4cccc(Cl)c4Cl)CC3)ccc21 [Example 65],1 to 20 nM,
"CC(=O)c1cccc(NC(=O)NC2CCN(C(=O)c3ccc4c(c3)nc(CCc3ccc(C(=N)N)cc3)n4C)CC2)c1 [Example 56, 2-[2-(4-Amidinophenyl)-ethyl]-1-methyl-benzimidazole-5-yl-carboxylic acid-{4-[3-(3-acetyl)-phenylureido]piperidinyl}-amide]",1 to 20 nM,
"COc1ccccc1C(=O)NC1CCN(C(=O)c2ccc3c(c2)nc(CCc2ccc(C(=N)N)cc2)n3C)CC1 [Example 50, 2-[2-(4-Amidinophenyl)-ethyl]-1-methyl-benzimidazole-5-yl-carboxylic acid-[4-(2-methoxy)-benzamidopiperidinyl)-amide]",1 to 20 nM,
"Cn1c(CCc2ccc(C(=N)N)cc2)nc2cc(C(=O)N3CCC(NC(=O)Nc4ccc(Cl)cc4)CC3)ccc21 [Example 31, 4-[2-(5-{4-[3-(4-Chloro-phenyl)-ureido]-piperidine-1-carbonyl}-1-methyl-1H-benzimidazole-2-yl)-ethyl]-benzamidine]",1 to 20 nM,
"COC(=O)c1cccc(NC(=O)N(C)C2CCN(C(=O)c3ccc4c(c3)nc(CCc3ccc(C(=N)N)cc3)n4C)CC2)c1 [Example 61, 2-[2-(4-Amidinophenyl)-ethyl]-1-methyl-benzimidazole-5-yl-carboxylic acid-{4-[3-(3-methoxycarbonyl)-phenyl-1-methyl-ureido]piperidinyl)-amide]",1 to 20 nM,
"Cn1c(CCc2ccc(C(=N)N)cc2)nc2cc(C(=O)N3CCC(NC(=O)Nc4cccc5ccccc45)CC3)ccc21 [Example 34, 4-(2-{1-Methyl-5-[4-(3-naphthalen-1-yl-ureido)-piperidine-1-carbonyl]-1H-benzimidazole-2-yl}-ethyl)-benzamidine]",1 to 20 nM,
"CSc1cccc(NC(=O)NC2CCN(C(=O)c3ccc4c(c3)nc(CCc3ccc(C(=N)N)cc3)n4C)CC2)c1 [Example 58, 2-[2-(4-Amidinophenyl)-ethyl]-1-methyl-benzimidazole-5-yl-carboxylic acid-{4-[3-(3-methylsulfanyl)phenylureido]piperidinyl}-amide]",0.1 to 1 nM,
Cn1c(CCc2ccc(C(N)=NC(=O)c3ccccc3)cc2)nc2cc(C(=O)N3CCC(NC(=O)c4ccccc4)CC3)ccc21 [IIA17],,360 nM
"Cn1c(CCc2ccc(C(=N)N)cc2)nc2cc(C(=O)N3CCC(NC(=O)Nc4ccc(C(F)(F)F)cc4)CC3)ccc21 [Example 41, 4-[2-(1-Methyl-5-{4-[3-(4-trifluoromethyl-phenyl)-ureido]-piperidine-1-carbonyl}-1H-benzimidazole-2-yl)-ethyl]-benzamidine]",1 to 20 nM,
"Cn1c(CCc2ccc(C(=N)N)cc2)nc2cc(C(=O)N3CCC(NC(=O)Nc4ccc(Br)cc4)CC3)ccc21 [Example 39, 4-[2-(5-{4-[3-(4-Bromo-phenyl)-ureido]-piperidine-1-carbonyl}-1-methyl-1H-benzimidazole-2-yl)-ethyl] -benzamidine]",1 to 20 nM,

# — US6855713B2, “Benzimidazole derivatives, a process for their manufacture and use as a medicine” (Boehringer Ingelheim Pharma KG, priority 2001, dated 2005)
